Assays:
Assay type in all cases: cell-based, human
[1] = tested on: HUVEC cells; test: Wound healing (scratch) assay of HUVEC cells; details: 10 μM, FIG. 3
Procedure: (§1) Briefly, human umbilical vein endothelial cells (in the following HUVEC) were freshly isolated out of human umbilical cords by methods known in the art and were used in the experiments from passage p4 up to passage p10 to prevent any artefacts originating from in vitro changes of the cells.
(§2) In all experiments, the C-19 steroid compound 4-OHT was added to the cells in the indicated concentration in EGM-2 medium (Lonza) in order to avoid any artefacts originating from exogenous factors contained in the medium.
Another method for studying cell migration is the wound healing (scratch) assay. This assay resembles the events occurring in an acute wound healing process. By release of factors from the wound area endothelial cells migrate into the scratch area, which shall resemble the process of healing and closure of the wound by vascularization and later scar formation.
In summary, HUVEC cells were seeded in a 12-well plate and allow to grow until reaching confluency. Subsequently, a scratch was set, thereby removing the cells within the scratch area. The cells were exposed to 10 μM of 4-OHT and the migration of endothelial cells into the scratch area was monitored microscopically using a schedule from 2 up to 48 hrs, depending on the individual experimental design. […]

[2] = tested on: HUVEC cells; test: Transwell migration assay of HUVEC cells with VEGF as attractant; details: 48 hrs, VEGF as attractant in lower chamber, compared to control, FIG. 2B
Procedure: as §1, §2
A prerequisite of angiogenesis is the capability of endothelial cells to migrate into the tissue. This process is observed in wound healing and also in the process of tumor growth. Endothelial cells migrate into the tissue along a gradient of factors such as VEGF. This behavior can be studied in an in vitro model of migration using a transwell system, as e.g. apparent from FIG. 2A.
For studying the migration of HUVEC cells using the transwell system with PET-membranes having a 3 μm pore size (24-wells w/o fibronectin-coating), HUVEC cells in different cell numbers were placed in the upper compartment, whereas the attractant was placed in the lower compartment. The number of cells on the attractant site of the membrane was compared with the number of cells visible in a control system (buffer control) and with the attractant (VEGF) in the presence of 4-OHT. […]

[3] = tested on: HUVEC cells; test: WST-1 proliferation assay of HUVEC cells; details: 1, 2 and 5 μM; all 3 HUVEC cell cultures; p<0.001 (t-test); FIG. 1A
Procedure: All experiments were additionally run in several replicates (one HUVEC in different passages as well as different preparations.
For determining the proliferation rates, WST-1 tests were performed. Essentially, 1000 HUVEC cells/well were seeded in a 96-well plate and exposed to the indicated concentrations of 4-OHT (also denoted by lab code CR 1447) for 5 days. Inhibition of proliferation was quantified by measuring the enzymatic cleavage of the tetrazolium salt WST-1 to formazan by cellular mitochondrial dehydrogenases as a readout for cell viability, wherein cell viability of treated cells is expressed as the percentage (%) of untreated controls containing only the solvent in appropriate concentrations.
Cells were grown and subcultured in Endothelial Cell Growth medium (EGM) for 3 and 5 days, respectively.

[4] = tested on: HUVEC cells; test: Tube migration (tube formation) assay of HUVEC cells on matrigel; details: HUVEC on matrigel (7 mg/ml), 10 μM/L, FIG. 4
Procedure: as §1, §2
After migration into the tissue of a scratch, HUVEC cells change their growth characteristics and form microvessels. This effect can be assessed microscopically.
HUVEC cells were seeded on matrigel (7 mg/ml). Cell suspensions as well as gels containing 10 μM/L 4-OHT were added upon seeding, It was allowed to form branching points during adherence onto this surface mimicking basal membrane character. Tube formation was analyzed microscopically after 12 and 48 hours.
When the human endothelial cells were subjected onto matrigel pads, branching points as one marker of tube formation are inhibited by 4-OHT as compared to untreated controls (red arrows).

SMILES: C[C@]12CC[C@H]3[C@@H](CCC4=C(O)C(=O)CC[C@@]43C)[C@@H]1CC[C@@H]2O [4-OHT, 4-hydroxytestosterone]
- migration of HUVEC cells into the scratch area compared to untreated control cells ([1]; after 24 h): clear reduction
- endothelial cell migration (wound-healing / scratch assay) ([1]; monitored 2 up to 48 hrs): effectively inhibited
- migration of cells into the membrane (transwell) [2]: significantly inhibits
- growth inhibition (WST-1 cell viability vs untreated controls) [3]: highly significant
- tube formation of human endothelial cells ([4]; analyzed after 12 and 48 hours): significantly inhibited
- branching of the cells (branching points as marker of tube formation) ([4]; compared to untreated controls): markedly inhibited

— US10426785B2, “C-19 steroids for inhibiting neovascularization” (priority 2014, dated 2019)
